Measured values: ChEMBL document CHEMBL1201862, “PubChem BioAssay data set” (2004)
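Test compounds were applied to cells in 96-well plates for 48 hours at 5 doses. GI50 marks 50% less growth.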 Calls of active or inactive are those of the source. Cut-off read from the data, not from the text of the source: active = GI50 up to about 1.1 µM and inactive = higher.

Assays:
Test in all cases: NCI tumour cell line growth inhibition, 48 h
UO-31 = test system: UO-31
RXF 393 = test system: RXF 393
SK-OV-3 = test system: SK-OV-3
SK-MEL-28 = test system: SK-MEL-28
CAKI-1 = test system: CAKI-1
SK-MEL-5 = test system: SK-MEL-5
TK-10 = test system: TK-10
SK-MEL-2 = test system: SK-MEL-2
MDA-N = test system: MDA-N
MDA-MB-435 = test system: MDA-MB-435
LOX IMVI = test system: LOX IMVI
HCT-15 = test system: HCT-15
OVCAR-4 = test system: OVCAR-4
UACC-257 = test system: UACC-257
HL-60 = test system: HL-60
HOP-92 = test system: HOP-92
BT-549 = test system: BT-549
M14 = test system: M14
MCF7 = test system: MCF7
SNB-75 = test system: SNB-75
HOP-62 = test system: HOP-62
MDA-MB-231 = test system: MDA-MB-231
A549 = test system: A549
PC-3 = test system: PC-3
SR = test system: SR
COLO 205 = test system: COLO 205
SF-268 = test system: SF-268
A498 = test system: A498
NCI-H522 = test system: NCI-H522
SN12C = test system: SN12C
SNB-19 = test system: SNB-19
SF-295 = test system: SF-295
NCI-H460 = test system: NCI-H460
UACC-62 = test system: UACC-62
MOLT-4 = test system: MOLT-4
RPMI-8226 = test system: RPMI-8226
786-0 = test system: 786-0
EKVX = test system: EKVX
CCRF-CEM = test system: CCRF-CEM
OVCAR-5 = test system: OVCAR-5
NCI-H23 = test system: NCI-H23
HT-29 = test system: HT-29
OVCAR-8 = test system: OVCAR-8
T47D = test system: T47D
ACHN = test system: ACHN
KM12 = test system: KM12
K562 = test system: K562
SW-620 = test system: SW-620
IGROV-1 = test system: IGROV-1
U-251 = test system: U-251
NCI/ADR-RES = test system: NCI/ADR-RES
SF-539 = test system: SF-539
Hs-578T = test system: Hs-578T
OVCAR-3 = test system: OVCAR-3
HCC 2998 = test system: HCC 2998
HCT-116 = test system: HCT-116
NCI-H226 = test system: NCI-H226
DU-145 = test system: DU-145
Malme-3M = test system: Malme-3M

Measured: GI50

O=c1[nH]/c(=C/c2ccc(OCc3ccccc3)cn2)c(=O)[nH]/c1=C/c1ccc([N+](=O)[O-])cc1
inactive: UO-31 > 100 µM | RXF 393 > 80.2 µM | SK-OV-3 > 73.5 µM | SK-MEL-28 > 100 µM | CAKI-1 > 37.8 µM | SK-MEL-5 > 100 µM | TK-10 > 100 µM | SK-MEL-2 > 100 µM | MDA-N > 100 µM | MDA-MB-435 > 100 µM | LOX IMVI > 100 µM | OVCAR-4 > 100 µM | UACC-257 > 100 µM | HL-60 > 100 µM | HOP-92 > 100 µM | BT-549 54.7 µM | M14 > 100 µM | MCF7 > 100 µM | SNB-75 27.1 µM | HOP-62 55.1 µM | MDA-MB-231 > 89.3 µM | A549 > 100 µM | PC-3 > 100 µM | SR > 58.3 µM | COLO 205 > 100 µM | SF-268 > 54.2 µM | A498 43 µM | NCI-H522 > 100 µM | SN12C > 100 µM | SNB-19 > 64.7 µM | SF-295 49.1 µM | NCI-H460 > 100 µM | UACC-62 > 100 µM | MOLT-4 > 63.1 µM | RPMI-8226 > 100 µM | 786-0 > 100 µM | EKVX > 100 µM | CCRF-CEM > 100 µM | OVCAR-5 > 100 µM | NCI-H23 > 100 µM | HT-29 > 100 µM | OVCAR-8 > 100 µM | T47D > 100 µM | ACHN > 94.6 µM | KM12 > 100 µM | K562 > 100 µM | SW-620 > 100 µM | IGROV-1 > 100 µM | U-251 > 65.3 µM | NCI/ADR-RES > 100 µM | SF-539 > 61.4 µM | Hs-578T 35.8 µM | OVCAR-3 > 100 µM | HCC 2998 > 100 µM | HCT-116 > 100 µM | NCI-H226 > 100 µM | DU-145 > 100 µM | Malme-3M > 100 µM
> 100 µM: HCT-15

O=C1CCCC2=C1CC1=C(CCCC1=O)N2c1ccc(-c2ccccc2)cc1
> 100 µM: HCT-15
inactive: UO-31 > 100 µM | RXF 393 > 24.6 µM | SK-OV-3 > 76.9 µM | SK-MEL-28 > 100 µM | CAKI-1 > 100 µM | SK-MEL-5 > 100 µM | TK-10 > 75 µM | SK-MEL-2 > 100 µM | MDA-N > 100 µM | MDA-MB-435 > 100 µM | LOX IMVI > 100 µM | OVCAR-4 > 100 µM | UACC-257 > 100 µM | HL-60 > 29.6 µM | HOP-92 > 75.3 µM | BT-549 > 40 µM | M14 > 100 µM | MCF7 > 100 µM | SNB-75 > 47.4 µM | HOP-62 > 100 µM | MDA-MB-231 > 100 µM | A549 > 100 µM | PC-3 > 100 µM | SR > 100 µM | COLO 205 > 100 µM | SF-268 > 63.5 µM | A498 > 100 µM | NCI-H522 > 100 µM | SN12C > 100 µM | SNB-19 > 63.2 µM | SF-295 > 100 µM | NCI-H460 > 100 µM | UACC-62 > 66.5 µM | MOLT-4 > 100 µM | RPMI-8226 > 100 µM | 786-0 > 69.7 µM | EKVX > 100 µM | CCRF-CEM > 100 µM | OVCAR-5 > 100 µM | NCI-H23 > 100 µM | HT-29 > 100 µM | OVCAR-8 > 100 µM | T47D > 100 µM | ACHN > 100 µM | KM12 > 100 µM | K562 > 100 µM | SW-620 > 100 µM | IGROV-1 > 100 µM | U-251 > 75 µM | NCI/ADR-RES > 100 µM | SF-539 > 72.6 µM | Hs-578T 43.2 µM | OVCAR-3 > 100 µM | HCC 2998 > 100 µM | HCT-116 > 100 µM | NCI-H226 > 100 µM | DU-145 > 100 µM | Malme-3M > 100 µM

CC(=N\N)/C(C)=N/N=C(C)/C(C)=N/N=C(C)/C(C)=N/N
inactive: UO-31 > 100 µM | RXF 393 > 100 µM | SK-OV-3 > 100 µM | SK-MEL-28 > 100 µM | CAKI-1 > 100 µM | SK-MEL-5 > 100 µM | TK-10 > 100 µM | SK-MEL-2 > 100 µM | MDA-N > 100 µM | MDA-MB-435 > 100 µM | LOX IMVI > 100 µM | OVCAR-4 > 100 µM | UACC-257 > 100 µM | HL-60 28.5 µM | HOP-92 > 100 µM | BT-549 > 100 µM | M14 > 100 µM | MCF7 > 100 µM | SNB-75 > 100 µM | HOP-62 > 100 µM | MDA-MB-231 > 100 µM | A549 > 100 µM | PC-3 > 100 µM | SR > 100 µM | COLO 205 > 100 µM | SF-268 > 100 µM | A498 > 100 µM | NCI-H522 > 100 µM | SN12C > 100 µM | SNB-19 > 100 µM | SF-295 > 100 µM | NCI-H460 > 100 µM | RPMI-8226 > 100 µM | 786-0 > 100 µM | EKVX > 100 µM | CCRF-CEM > 100 µM | OVCAR-5 > 100 µM | NCI-H23 > 100 µM | HT-29 > 100 µM | OVCAR-8 > 100 µM | T47D > 100 µM | ACHN > 100 µM | KM12 > 100 µM | K562 > 100 µM | SW-620 > 100 µM | IGROV-1 > 100 µM | U-251 > 100 µM | NCI/ADR-RES > 100 µM | SF-539 > 100 µM | Hs-578T > 100 µM | OVCAR-3 > 100 µM | HCC 2998 > 100 µM | HCT-116 > 100 µM | NCI-H226 > 100 µM | DU-145 > 100 µM | Malme-3M > 100 µM
> 100 µM: HCT-15
active: MOLT-4 0.1 µM

CCOC(=O)c1csc(-c2cn(C)c3c2C(=O)C(OC)=CC3=O)n1
inactive: UO-31 44.4 µM | RXF 393 23.6 µM | SK-OV-3 69 µM | SK-MEL-28 32.6 µM | CAKI-1 > 91.2 µM | SK-MEL-5 3.91 µM | TK-10 > 100 µM | SK-MEL-2 21.7 µM | MDA-N 15.6 µM | MDA-MB-435 3.27 µM | LOX IMVI 2.6 µM | OVCAR-4 42.8 µM | UACC-257 21.6 µM | HL-60 13 µM | HOP-92 40.5 µM | BT-549 > 40.3 µM | M14 14 µM | MCF7 7.6 µM | SNB-75 30.3 µM | HOP-62 23.2 µM | MDA-MB-231 18.3 µM | A549 17.8 µM | PC-3 21.4 µM | SR > 53.5 µM | COLO 205 26.9 µM | SF-268 > 62.5 µM | A498 24.3 µM | NCI-H522 36.6 µM | SN12C > 75.2 µM | SNB-19 14.2 µM | SF-295 25 µM | NCI-H460 8.73 µM | UACC-62 21.2 µM | MOLT-4 > 100 µM | RPMI-8226 9.53 µM | 786-0 > 100 µM | EKVX > 86.3 µM | CCRF-CEM 72.8 µM | OVCAR-5 31.1 µM | NCI-H23 11.3 µM | HT-29 48.2 µM | OVCAR-8 45.2 µM | T47D > 95.1 µM | ACHN 34.8 µM | KM12 20 µM | K562 21.6 µM | SW-620 55.2 µM | IGROV-1 > 46.1 µM | U-251 15.4 µM | NCI/ADR-RES 22.5 µM | SF-539 27.6 µM | Hs-578T 21.2 µM | OVCAR-3 5.82 µM | HCC 2998 23.8 µM | HCT-116 18.3 µM | NCI-H226 > 83 µM | DU-145 6.05 µM
9.75 µM: HCT-15
